Results on one compound are retold here after patent publication US20260021196A1, “HOMOGENEOUS ANTIBODY-CONJUGATES WITH HIGH PAYLOAD LOADING” (SYNAFFIX B.V., priority 2023, published 2026).

Some results are limits rather than exact numbers.

Type in all cases: cell-based
One assay concerns BT-474 cells. The experiment in a line: In vitro cytotoxicity (Example 131). Particulars: Homo sapiens, Table 8 / FIG. 22B, DAR8 ADCs and free payloads. The procedure: (§1) The cells were incubated for 5 days in a humidified atmosphere at 37° C. and 5% CO2. […] After approximately 4 hours in a humidified atmosphere at 37° C. and 5% CO2 the fluorescence was detected with a fluorescence plate reader (Infinite® M1000 Tecan) at 560 nm excitation and 590 nm emission. The relative fluorescent units (RFU) were normalized to cell viability percentage by setting wells without cells at 0% viability and wells with untreated cells at 100% viability (see FIGS. 22A-22C).

In the next assay the test system is MDA-MB-231 (HER2−) cells. The experiment in a line: In vitro cytotoxicity, negative control cell line (Examples 131-133). Particulars: Homo sapiens, MDA-MB-231, 120 h, Table 8 / FIG. 22C, 5 days incubation, read-out: IC50 (MDA-MB231 cells). The procedure: as §1
(§2) After approximately 4 hours in a humidified atmosphere at 37° C. and 5% CO2 the fluorescence was detected with a fluorescence plate reader (Infinite® M1000 Tecan) at 560 nm excitation and 590 nm emission. The relative fluorescent units (RFU) were normalized to cell viability percentage by setting wells without cells at 0% viability and wells with untreated cells at 100% viability (see FIGS. 23A-23B).
(§3) The cells were incubated for 5 days in a humidified atmosphere at 37° C. and 5% CO2. […] After approximately 4 hours in a humidified atmosphere at 37° C. and 5% CO2 the fluorescence was detected with a fluorescence plate reader (Infinite® M1000 Tecan) at 560 nm excitation and 590 nm emission. The relative fluorescent units (RFU) were normalized to cell viability percentage by setting wells without cells at 0% viability and wells with untreated cells at 100% viability (see FIGS. 24A-24B).

The next assay concerns NCI-N87 (HER2 3+) cells. The experiment in a line: In vitro cytotoxicity, resazurin cell viability (Examples 131-133). Particulars: Homo sapiens, NCI-N87, 120 h; Table 8 / FIG. 22A, DAR8 ADCs and free payloads, 5 days incubation. The method, then: as §1, §2, §3
Background: Resazurin is reduced to fluorescent resorufin, in cell work by metabolically active cells.

The term IC50 denotes the concentration needed to halve the response being measured.

`CO[C@@]12[C@H](COC(N)=O)C3=C(C(=O)C(C)=C(N)C3=O)N1C[C@@H]1N[C@@H]12` [Mitomycin (free payload), Mitomycin C]: the figures for the IC50 with BT-474 cells, in the assay with MDA-MB-231 (HER2−) cells and in the assay on NCI-N87 (HER2 3+) cells were 905 nM, more than 100 nM and 94 nM, respectively.
